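Method: 48-hour compound exposure of cells in 96-well plates, five concentrations, linear interpolation of endpoints. GI50: concentration for 50% inhibition of growth.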 Activity calls are given as the source filed them. Cut-off read from the data, not from the text of the source: active = GI50 up to about 1.1 µM and inactive = higher.
Legend:
Experiment in all cases: DTP human tumour cell line panel, 48 h
786-0 = system: 786-0
A549 = system: A549
HL-60 = system: HL-60
HT-29 = system: HT-29
K562 = system: K562
KM12 = system: KM12
LOX IMVI = system: LOX IMVI
MOLT-4 = system: MOLT-4
OVCAR-5 = system: OVCAR-5
OVCAR-8 = system: OVCAR-8
RPMI-8226 = system: RPMI-8226
SK-OV-3 = system: SK-OV-3
SN12C = system: SN12C
SW-620 = system: SW-620
TK-10 = system: TK-10
NCI-H226 = system: NCI-H226
SF-295 = system: SF-295
SK-MEL-5 = system: SK-MEL-5
SR = system: SR

Measured: GI50

COc1ccc2nc(-c3ccccn3)cc(O)c2c1
inactive: 786-0 90.2 µM | A549 44 µM | HL-60 34 µM | HT-29 42.8 µM | K562 17.4 µM | KM12 26.7 µM | LOX IMVI 41.2 µM | MOLT-4 28.8 µM | OVCAR-5 > 100 µM | OVCAR-8 39.8 µM | RPMI-8226 37.8 µM | SK-OV-3 52.7 µM | SN12C 47 µM | SW-620 32 µM | TK-10 96.4 µM

COc1ccc(-c2nnc(CCCCCCCCc3nnc(-c4ccc(OC)cc4)o3)o2)cc1
inactive: 786-0 57.4 µM | A549 > 100 µM | HL-60 > 100 µM | HT-29 > 100 µM | K562 > 100 µM | KM12 > 100 µM | LOX IMVI 91.4 µM | MOLT-4 > 100 µM | NCI-H226 > 100 µM | OVCAR-5 > 100 µM | OVCAR-8 57.9 µM | SF-295 50.4 µM | SK-MEL-5 > 100 µM | SK-OV-3 54.2 µM | SN12C > 100 µM | SW-620 > 100 µM | TK-10 65.2 µM

N/N=c1\c2ccccc2c2cc3c(cc12)/c(=N/N)c1ccccc13
inactive: 786-0 > 100 µM | A549 > 100 µM | HL-60 > 100 µM | HT-29 > 100 µM | K562 > 100 µM | KM12 > 100 µM | MOLT-4 > 100 µM | NCI-H226 > 100 µM | OVCAR-5 > 100 µM | OVCAR-8 > 100 µM | RPMI-8226 > 100 µM | SF-295 > 100 µM | SK-MEL-5 > 100 µM | SK-OV-3 > 100 µM | SN12C > 100 µM | SR 76.2 µM | SW-620 > 100 µM

C/C=C(\CCOS(=O)(=O)c1ccc(C)cc1)[Si](C)(C)C
inactive: 786-0 > 100 µM | A549 > 100 µM | HL-60 > 100 µM | HT-29 > 100 µM | K562 > 100 µM | KM12 > 100 µM | LOX IMVI > 100 µM | MOLT-4 > 100 µM | OVCAR-5 > 100 µM | OVCAR-8 > 100 µM | RPMI-8226 > 100 µM | SF-295 > 100 µM | SK-MEL-5 > 100 µM | SK-OV-3 > 100 µM | SN12C > 100 µM | SR > 100 µM | SW-620 > 100 µM | TK-10 > 100 µM

COC1OC2COC(C)(C)OC2C(OC(C)=O)C1NC(=O)N(CCCl)N=O (centres undefined)
inactive: 786-0 59.4 µM | A549 83 µM | HL-60 11.2 µM | HT-29 > 100 µM | K562 54.8 µM | KM12 > 100 µM | LOX IMVI 28.7 µM | MOLT-4 59.6 µM | NCI-H226 47 µM | OVCAR-5 > 100 µM | OVCAR-8 > 100 µM | SF-295 28.8 µM | SK-MEL-5 > 100 µM | SK-OV-3 > 100 µM | SN12C > 100 µM | SW-620 > 100 µM | TK-10 > 100 µM

Cc1cc2c([nH]c3ccccc32)c2c1OC(C)(C)C1C3CC(C)(C)Oc4c(C)cc5c6ccccc6n(c5c43)C21 (centres undefined)
inactive: 786-0 > 100 µM | A549 > 100 µM | HL-60 > 100 µM | HT-29 > 100 µM | K562 > 100 µM | KM12 > 100 µM | LOX IMVI > 100 µM | MOLT-4 > 100 µM | OVCAR-5 > 100 µM | OVCAR-8 > 100 µM | RPMI-8226 > 100 µM | SF-295 > 100 µM | SK-MEL-5 > 100 µM | SK-OV-3 > 100 µM | SN12C > 100 µM | SR > 100 µM | SW-620 > 100 µM | TK-10 > 100 µM

N#Cc1c2ccccc2cn1-c1ccc(F)cc1
inactive: 786-0 30.3 µM | A549 24.6 µM | HL-60 4.62 µM | HT-29 23.5 µM | K562 26.7 µM | KM12 21.8 µM | MOLT-4 27.4 µM | NCI-H226 9.27 µM | OVCAR-5 45.6 µM | OVCAR-8 > 10 µM | RPMI-8226 22 µM | SF-295 23.5 µM | SK-MEL-5 > 10 µM | SR > 10 µM | SW-620 46.2 µM | TK-10 29 µM

CSc1nc(SC)c2c(C(N)=S)n[nH]c2n1
inactive: 786-0 28.4 µM | A549 23 µM | HT-29 33 µM | K562 26.2 µM | KM12 37.4 µM | LOX IMVI 24.1 µM | MOLT-4 27 µM | NCI-H226 19.9 µM | OVCAR-8 28.8 µM | RPMI-8226 23.1 µM | SF-295 6 µM | SK-MEL-5 17.9 µM | SK-OV-3 23.6 µM | SN12C 36.3 µM | SR 30.7 µM | SW-620 37 µM | TK-10 23.3 µM

COc1ccc(-c2c(C(C)=O)c(C)n(C3OC(COC(C)=O)C(OC(C)=O)C(OC(C)=O)C3OC(C)=O)c(=S)c2C#N)cc1 (centres undefined)
inactive: 786-0 62.1 µM | A549 66.2 µM | HL-60 63.5 µM | HT-29 > 100 µM | K562 68.5 µM | KM12 > 100 µM | LOX IMVI 21.9 µM | MOLT-4 43 µM | NCI-H226 > 100 µM | OVCAR-5 > 100 µM | OVCAR-8 > 100 µM | SF-295 69 µM | SK-MEL-5 63.1 µM | SK-OV-3 > 100 µM | SN12C > 100 µM | SR > 100 µM | SW-620 72.8 µM | TK-10 > 100 µM

O=[N+]([O-])c1ccc(OCc2nnc(CCCCCCCCc3nnc(COc4ccc([N+](=O)[O-])cc4)o3)o2)cc1
inactive: 786-0 > 100 µM | A549 > 100 µM | HT-29 > 100 µM | K562 > 100 µM | KM12 55.3 µM | MOLT-4 > 100 µM | NCI-H226 > 100 µM | OVCAR-5 > 100 µM | RPMI-8226 > 100 µM | SF-295 > 100 µM | SK-MEL-5 > 100 µM | SK-OV-3 40.6 µM | SN12C > 100 µM | SW-620 > 100 µM | TK-10 > 100 µM

COC(=O)C1=C(CCCCO[Si](C)(C)C(C)(C)C)NC(=O)N2[C@H](CCOCc3ccccc3)CC[C@@H]12
inactive: 786-0 44.7 µM | A549 26.7 µM | K562 87.9 µM | KM12 49.5 µM | MOLT-4 > 100 µM | NCI-H226 > 100 µM | OVCAR-5 > 100 µM | RPMI-8226 49.4 µM | SF-295 33.1 µM | SK-MEL-5 13 µM | SK-OV-3 > 100 µM | SN12C 30.1 µM | TK-10 > 100 µM

Cc1cc2c(c3nocc13)C(=O)c1ccccc1C2=O
inactive: 786-0 > 100 µM | A549 > 100 µM | HL-60 98.2 µM | HT-29 > 100 µM | K562 > 100 µM | KM12 > 100 µM | LOX IMVI > 100 µM | MOLT-4 > 100 µM | OVCAR-5 > 100 µM | OVCAR-8 > 100 µM | RPMI-8226 > 100 µM | SF-295 > 100 µM | SK-MEL-5 > 100 µM | SK-OV-3 > 100 µM | SN12C > 100 µM | SW-620 > 100 µM | TK-10 > 100 µM

CC(C)=CCC(O)[C@](C)(O)[C@H]1[C@H](O)C[C@@]2(C)[C@@H]3CCc4cc(O)c(OC5OC(CO)C(O)C(O)C5O)cc4C3(C)C(=O)C[C@]12C (some centres undefined)
inactive: 786-0 > 100 µM | A549 > 100 µM | HT-29 > 100 µM | K562 > 100 µM | KM12 > 100 µM | MOLT-4 > 100 µM | NCI-H226 > 100 µM | OVCAR-5 > 100 µM | OVCAR-8 > 100 µM | SF-295 > 100 µM | SK-MEL-5 > 100 µM | SK-OV-3 > 100 µM | SN12C > 100 µM | SR > 100 µM | SW-620 > 100 µM | TK-10 > 100 µM

CC1(C)CCC[C@]2(C)[C@@H]1CC[C@@]13O[C@@H]1C1=C(CO)C(=O)O[C@]14O[C@@H]4[C@@H]23
inactive: 786-0 15.2 µM | A549 7.98 µM | HT-29 12.4 µM | K562 > 41 µM | KM12 18 µM | LOX IMVI 10.8 µM | MOLT-4 15.1 µM | NCI-H226 19 µM | OVCAR-5 15.7 µM | OVCAR-8 12.9 µM | RPMI-8226 > 100 µM | SF-295 16.1 µM | SK-MEL-5 13.2 µM | SK-OV-3 16.7 µM | SN12C 5.9 µM | SR 4.61 µM | SW-620 12.8 µM | TK-10 17.6 µM

[N-]=[N+]=NC1C(Br)C(=O)NC(=O)N1[C@H]1C[C@H](O)[C@@H](CO)O1 (some centres undefined)
inactive: 786-0 > 100 µM | A549 > 100 µM | HL-60 > 100 µM | HT-29 > 100 µM | K562 > 100 µM | KM12 > 100 µM | LOX IMVI > 100 µM | MOLT-4 > 100 µM | OVCAR-5 > 100 µM | OVCAR-8 > 100 µM | SF-295 > 100 µM | SK-OV-3 > 100 µM | SN12C > 100 µM | SW-620 > 100 µM | TK-10 > 100 µM

CC1CSc2nc3nc(S)nc-3c(O)n2C1 (centres undefined)
inactive: 786-0 > 100 µM | A549 > 100 µM | HL-60 > 100 µM | K562 > 100 µM | KM12 > 100 µM | LOX IMVI > 100 µM | MOLT-4 > 100 µM | NCI-H226 > 100 µM | OVCAR-5 > 100 µM | OVCAR-8 > 100 µM | RPMI-8226 > 100 µM | SF-295 > 100 µM | SK-MEL-5 > 100 µM | SK-OV-3 > 100 µM | SN12C > 100 µM | SW-620 > 100 µM | TK-10 > 100 µM

— ChEMBL document CHEMBL1201862, “PubChem BioAssay data set” (2004)
